Test results as given in ChEMBL document CHEMBL1155460, “Prediction of acetylcholinesterase inhibitors and characterization of correlative molecular descriptors by machine learning methods” (Eur J Med Chem, 2010).

Target: Acetylcholinesterase (Homo sapiens, UniProt P22303)
Sequence (P22303 whole entry): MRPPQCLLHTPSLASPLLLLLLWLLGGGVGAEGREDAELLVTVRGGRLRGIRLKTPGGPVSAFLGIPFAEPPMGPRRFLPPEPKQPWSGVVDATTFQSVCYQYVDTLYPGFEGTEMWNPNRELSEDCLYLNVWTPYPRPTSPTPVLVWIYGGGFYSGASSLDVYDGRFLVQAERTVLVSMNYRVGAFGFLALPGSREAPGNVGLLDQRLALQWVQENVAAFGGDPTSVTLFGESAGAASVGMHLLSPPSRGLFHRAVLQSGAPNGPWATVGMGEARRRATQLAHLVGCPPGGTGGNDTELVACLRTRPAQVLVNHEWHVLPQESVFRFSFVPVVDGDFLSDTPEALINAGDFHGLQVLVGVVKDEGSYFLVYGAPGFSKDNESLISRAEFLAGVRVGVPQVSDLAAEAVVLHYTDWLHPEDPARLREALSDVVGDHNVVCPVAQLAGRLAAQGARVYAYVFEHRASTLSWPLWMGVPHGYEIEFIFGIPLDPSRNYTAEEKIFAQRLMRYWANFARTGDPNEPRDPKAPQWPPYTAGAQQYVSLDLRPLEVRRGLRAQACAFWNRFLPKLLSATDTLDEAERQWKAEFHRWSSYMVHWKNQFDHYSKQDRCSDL

Fc1ccc2c(NCCCCCCNc3c4c(nc5cc(F)ccc35)CCCC4)c3c(nc2c1)CCCC3
IC50: 0.0009 µM

c1ccc(CN2CCC(CCNc3ccc(-c4ccccc4)nn3)CC2)cc1
IC50: 0.12 µM

CNC(=O)Oc1ccc(-c2cn3c(NC(C)=O)cccc3[n+]2C)cc1
IC50: 1.1 µM

O=C1c2ccccc2C(=O)N1CCC1CCN(Cc2ccccc2)CC1
IC50: 0.08 µM

COc1ccc2c(c1OC)C(=O)CC2CCC1CCN(Cc2ccccc2)CC1 (configuration not stated)
IC50: 0.008 µM

COc1ccc(N(CCC2CCN(Cc3ccccc3)CC2)C(C)=O)cc1
IC50: 0.7 µM

Cc1c(/N=C/c2ccccc2O)cc2c(c1N)C(C)(C)CC2(C)C
IC50: 16 µM

CN(C)C(=O)Oc1ccc(-c2cn3c(Cl)cccc3[n+]2C)cc1
IC50: 12.6 µM

OCc1cc(-c2ccccc2)nnc1NCCN1CCOCC1
IC50: 440 µM

CNC(=O)Oc1cccc(CN(C)CCCCCCCOc2ccc3c(c2)OC/C(=C/c2cc(O)c(O)c(O)c2)C3=O)c1
IC50: 0.00981 µM

O=C(CCC1CCN(Cc2cccc(Cl)c2)CC1)c1ccc2c(c1)CCN2
IC50: 0.059 µM

c1ccc(CN2CCC(CNc3ccc(-c4ccccc4)nn3)CC2)cc1
IC50: 56 µM

COc1cc2c(cc1OC)CC(CC1CCN(c3ccccc3)CC1)=C2
IC50: 4.4 µM

CCCCCCNC(=O)Oc1cccc(CN(C)CCCOc2ccc3c(=O)cc(-c4ccccc4)oc3c2)c1
IC50: 0.068 µM

O=C(Nc1ccccc1)c1ccc2c(c1)C(=O)N(CCC1CCN(Cc3ccccc3)CC1)C2=O
IC50: 0.0022 µM

O=C(CCC1CCN(Cc2ccccc2)CC1)c1ccc2c(c1)N(Cc1ccccc1)CC2
IC50: 0.853 µM

Nc1c2ccccc2nc2c1cnc1cc(Cl)ccc12
IC50: 1000 µM

O=C1c2ccccc2CCN1CCC1CCN(Cc2ccccc2)CC1
IC50: 1 µM

CN1CCc2cc(C(=O)CCC3CCN(Cc4ccccc4)CC3)ccc21
IC50: 0.01 µM

Cc1cc(-c2ccc3c(c2)OCO3)nnc1NCCN1CCCCC1
IC50: 1 µM

COc1ccccc1CN(C)CCCCCC(=O)N(C)CCCCCCCCN(C)C(=O)CCCCCN(C)Cc1ccccc1OC [CAPROCTAMINE]
IC50: 0.104 µM

N#Cc1ccc2[nH]cc(CCC(=O)NCCCCCCNc3c4c(nc5cc(Cl)ccc35)CCCC4)c2c1
IC50: 0.0007 µM

COc1cccc2n1cc(-c1ccc(OC(=O)N(C)C)cc1)[n+]2C
IC50: 8.1 µM

CCCCNC(=O)Oc1ccc2c(c1)C1CCN(CC)C1C2 (configuration not stated)
IC50: 1.08 µM

O=C1c2ccccc2NCN1CCC1CCN(Cc2ccccc2)CC1
IC50: 0.8 µM

O=C(CCC1CCN(Cc2ccccc2)CC1)c1ccc2c(c1)CCN2
IC50: 0.02 µM

Nc1c2c(nc3ccccc13)CCCc1ccccc1-2
IC50: 38.2 µM

COc1cccc(CN2CCC(CCC(=O)c3ccc4c(c3)NCCCC4)CC2)c1
IC50: 0.847 µM

CCCCCCNC(=O)Oc1cccc(CN(C)CCCCOc2ccc3c(=O)c4ccccc4oc3c2)c1
IC50: 0.1 µM

COc1ccc2c(c1)CCc1c-2nc2ccccc2c1N
IC50: 47 µM

Nc1c2c(nc3ccccc13)CCC2
IC50: 0.056 µM

Cc1ccc2c(Nc3ccccc3)c3c(nc2c1)CCCC3
IC50: 0.75 µM

c1ccc(-c2ccc(NCCN3CCCCC3)nn2)cc1
IC50: 13 µM

O=C1c2cccnc2C(=O)N1CCC1CCN(Cc2ccccc2)CC1
IC50: 0.013 µM

O=C(CCC1CCN(Cc2cccc([N+](=O)[O-])c2)CC1)c1ccc2c(c1)NCCCC2
IC50: 0.39 µM

CNC(=O)Oc1cccc(-c2cn3ccccc3[n+]2C)c1
IC50: 0.35 µM

CN(CCOCCNC(=S)Nc1ccc(OC(F)(F)F)cc1)Cc1ccccc1
IC50: 1 µM

O=C(OC1Cc2c(O)cc(O)cc2OC1c1ccc(O)c(O)c1)c1cc(O)c(O)c(O)c1 (configuration not stated)
IC50: 28 µM

c1ccc(CN2CCC(CNc3nsc4ccccc34)CC2)cc1
IC50: 0.099 µM

c1ccc2c(NCCCCCCNc3c4c(nc5ncccc35)CCCCC4)c3c(nc2c1)CCCCC3
IC50: 0.0025 µM

Nc1c2c(nc3ccccc13)-c1ccccc1NCC2
IC50: 69.4 µM

O=C(CCC1CCN(Cc2ccc(F)cc2)CC1)c1ccc2c(c1)NCCCC2
IC50: 0.393 µM

CN(CCCNC(=O)CCc1c[nH]c2ccccc12)CCCNc1c2c(nc3ccccc13)CCCC2
IC50: 0.147 µM

O=C1c2ccc([N+](=O)[O-])cc2C(=O)N1CCC1CCN(Cc2ccc(Cl)cc2)CC1
IC50: 0.24 µM

CN(C)CCCCCCCCCCNc1c2c(nc3ccccc13)CCCC2
IC50: 0.045 µM

CN(CCNc1ccc(-c2ccccc2)nn1)Cc1ccccc1
IC50: 170 µM

Nc1c2c(nc3ccccc13)-c1cc(Br)ccc1CC2
IC50: 144 µM

CN(C)c1ccc(-c2c3cc(O)c(=O)cc-3oc3cc(O)c(O)cc23)cc1
IC50: 22 µM

O=C1c2ccccc2CCCC1CC1CCN(c2ccccc2)CC1 (configuration not stated)
IC50: 15 µM

c1ccc2c(NCCCCCCNc3c4c(nc5ccccc35)CCCC4)c3c(nc2c1)CCCC3
IC50: 0.0014 µM

CCCN1CCCCc2ccc(C(=O)CCC3CCN(Cc4ccccc4)CC3)cc21
IC50: 1.33 µM

O=C(NCCCCCNc1c2c(nc3cc(Cl)ccc13)CCCC2)c1c[nH]c2ccccc12
IC50: 0.18 µM

COc1ccc2c(c1)CCCc1c-2nc2ccccc2c1N
IC50: 68.8 µM

O=C(CCC1CCN(Cc2ccccc2)CC1)c1ccc2c(c1)CCN2c1ccccc1
IC50: 0.068 µM

O=c1c2ccccc2ncn1CCC1CCN(Cc2ccccc2)CC1
IC50: 1.2 µM

CCCc1cc(N2CCC=N2)ccc1C(=O)ON=C(N)c1ccc(C(F)(F)F)cc1
IC50: 13 µM

O=C(CCC1CCN(Cc2cccc(Cl)c2)CC1)c1ccc2c(c1)NCCCC2
IC50: 0.333 µM

O=C(CCc1c[nH]c2ccccc12)NCCCCCNc1c2c(nc3ccccc13)CCCC2
IC50: 0.07 µM

CCN1CC[C@@]2(C)c3cc(OC(=O)NC)ccc3C[C@@H]12
IC50: 0.038 µM

O=C(CCC1CCN(Cc2ccccc2)CC1)c1ccc2c(c1)OCO2
IC50: 0.03 µM

C[n+]1c(-c2ccccc2)cn2cc(C(N)=O)ccc21
IC50: 9.5 µM

CC1=C(C)c2nc3ccccc3c(N)c2C1
IC50: 3.5 µM

CCN1CCC2c3cc(OC(=O)NC)ccc3CC21 (configuration not stated)
IC50: 0.253 µM

CCN1CCc2cc(C(=O)CCC3CCN(Cc4ccccc4)CC3)ccc21
IC50: 0.011 µM

CCCCCCNC(=O)Oc1cccc(CN(C)CCCOc2ccc3ccc(=O)oc3c2)c1
IC50: 0.013 µM

O=C(NCCCCCCCCNc1c2c(nc3cc(Cl)ccc13)CCCC2)c1c[nH]c2ccccc12
IC50: 0.046 µM

CCC(=O)N(CCC1CCN(Cc2ccccc2)CC1)c1ccccc1
IC50: 0.83 µM

Cc1ccc2nc3c(c(Nc4ccccc4)c2c1)CCCC3
IC50: 3.7 µM

O=C(CCC1CCN(Cc2ccccc2)CC1)c1ccc2c(c1)N(c1ccccc1)CCC2
IC50: 1.49 µM

O=C(c1ccccc1)N(CCC1CCN(Cc2ccccc2)CC1)c1ccccc1
IC50: 0.035 µM

CCCc1cc(=NCCC2CCN(Cc3ccccc3)CC2)[nH]nc1-c1ccccc1
IC50: 0.061 µM

Clc1ccc2c(Nc3ccccc3)c3c(nc2c1)CCCC3
IC50: 0.17 µM

Nc1c2c(nc3ccccc13)-c1ccccc1C2
IC50: 0.35 µM

Cc1cc(-c2ccccc2)nnc1NCCN1CCCCC1
IC50: 5.4 µM

Cc1cc(C2(c3cc(C)c(O)c(C)c3)CCCCC2)cc(C)c1O
IC50: 15 µM

O=C(c1ccc([N+](=O)[O-])cc1)N(CCC1CCN(Cc2ccccc2)CC1)c1ccccc1
IC50: 0.0054 µM

CC(=O)N(CCC1CCN(Cc2ccccc2)CC1)c1ccncc1
IC50: 0.108 µM

c1ccc(-c2ncc(NCN3CCCCC3)nn2)cc1
IC50: 57 µM

c1ccc(-c2cnc(NCN3CCCCC3)nc2)cc1
IC50: 100 µM

Cc1cc(-c2ccccc2)nnc1NCCN1CCOCC1 [MINAPRINE]
IC50: 85 µM

O=C1Cc2ccccc2CN1CCC1CCN(Cc2ccccc2)CC1
IC50: 0.017 µM

O=C(CCc1c[nH]c2ccccc12)NCCCCCCCNc1c2c(nc3ccccc13)CCCC2
IC50: 6e-05 µM
